Assay results: patent US20250171459A1, “2-METHYL-4',5'-DIHYDROSPIRO[PIPERIDINE-4,7'-THIENO[2,3-C]PYRAN] DERIVATIVES AS INHIBITORS OF APOL1 AND METHODS OF USING SAME” (Vertex Pharmaceuticals Incorporated, priority 2022, published 2025)

biological target: T1, APOL1 (Homo sapiens, UniProt O14791); experiment: MultiTox-Fluor Multiplex Cytotoxicity Assay in tet-inducible APOL1 T-REx-HEK293 cells (cell rescue, ratio of dead to live cells); assay type: cell-based; details: tet-inducible transgenic APOL1 T-REx-HEK293 cell lines, 50 ng/mL tet, 24 hours; read-out: IP50 (i.e., IC50 for cell proliferation)
T1 sequence (O14791 1-398 S342G/I384M): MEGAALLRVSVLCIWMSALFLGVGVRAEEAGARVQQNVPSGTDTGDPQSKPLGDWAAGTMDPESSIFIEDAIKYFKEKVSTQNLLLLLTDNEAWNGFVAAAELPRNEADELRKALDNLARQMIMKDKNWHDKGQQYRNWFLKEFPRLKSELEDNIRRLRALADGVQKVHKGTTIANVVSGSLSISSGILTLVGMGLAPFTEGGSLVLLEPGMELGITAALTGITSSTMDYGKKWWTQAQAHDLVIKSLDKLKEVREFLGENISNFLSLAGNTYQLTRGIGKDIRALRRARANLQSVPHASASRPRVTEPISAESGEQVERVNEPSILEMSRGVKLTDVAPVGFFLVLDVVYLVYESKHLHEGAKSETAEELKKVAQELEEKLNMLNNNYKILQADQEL
Outline: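 T-REx-HEK293 cells with tet-inducible APOL1 were treated with compound (10 μM top, 10-point 3-fold dilution, duplicate) plus 50 ng/mL tetracycline for 24 h at 37° C, in DMEM with 2% tet-free FBS. MultiTox-Fluor protease signals gave a dead/live ratio, normalized to no tet (100% viability) and tet alone (0%).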

| Compound | IC50 [nM] |
| --- | --- |
| CCc1cc2c(s1)CCO[C@@]21CCN(C[C@H]2C[C@@H](NC(=O)C3CC(F)(F)C3)C2)[C@@H](C)C1 [Compound 300, N-[3-[[(2′S,4R)-2-ethyl-2′-methyl-spiro[6,7-dihydrothieno[3,2-c]pyran-4,4′-piperidine]-1′-yl]methyl]cyclobutyl]-3,3-difluoro-cyclobutanecarboxamide] | < 100 |
| CCc1cc2c(s1)CCOC21CCN(Cc2cnc(N)s2)CC1 [Compound 1134] | 100 to 500 |
| CCc1cc2c(s1)CCOC21CCN(Cc2cn(CCCF)nn2)CC1 [Compound 1099] | 500 to 1000 |
| C[C@H]1C[C@@]2(CCN1Cc1cnn(CCS(C)(=O)=O)c1)OCC(C#N)c1cc(Cl)sc12 (stereo partly drawn) [Compound 856, (2′S, 7R)-2-chloro-2′-methyl-1′-[[1-(2-methylsulfonylethyl)pyrazol-4-yl]methyl]spiro[4,5-dihydrothieno[2,3-c]pyran-7,4′-piperidine]-4-carbonitrile] | < 100 |
| C[C@H]1C[C@@]2(CCN1Cc1cn(CCS(C)(=O)=O)nn1)OCCc1cc(Cl)sc12 [Compound 696, (2′S, 7R)-2-chloro-2′-methyl-1′-[[1-(2-methylsulfonylethyl)triazol-4-yl]methyl]spiro[4,5-dihydrothieno[2,3-c]pyran-7,4-piperidine]] | 100 to 500 |
| C[C@H]1C[C@@]2(CCN1Cc1ccc(F)cc1)OCCc1c2sc(Cl)c1CO [Compound 755] | 100 to 500 |
| CC(c1nnc[nH]1)n1cc(CN2CC[C@]3(C[C@@H]2C)OCCc2c3sc(C(F)(F)F)c2CO)cn1 (some centres unmarked) [Compound 925] | 100 to 500 |
| Cn1cc(CN2CCC3(CC2)OCC(C)(C)c2sc(Cl)cc23)cn1 [Compound 1178, 2-chloro-7,7-dimethyl-1′-[(1-methylpyrazol-4-yl)methyl]spiro[6H-thieno[3,2-c]pyran-4,4′-piperidine]] | < 100 |
| C[C@H]1C[C@@]2(CCN1CC1(C)COC1)OCCc1c2sc(Cl)c1CO [Compound 746] | 500 to 1000 |
| C[C@H]1C[C@@]2(CCN1CC1(O)CCOCC1)OCCc1cc(CC(F)F)sc12 [Compound 600] | 100 to 500 |
| CS(=O)(=O)CCn1cc(CN2CCC3(CC2)OCCc2cc(Cl)sc23)cn1 [Compound 1169, 2′-chloro-1-((1-(2-(methylsulfonyl)ethyl)-1H-pyrazol-4-yl)methyl)-4′,5′-dihydrospiro[piperidine-4,7′-thieno[2,3-c]pyran]] | 100 to 500 |
| CC(=O)n1cc(CN2CCC3(CC2)OCCc2sc(Cl)cc23)cn1 [Compound 1166] | 100 to 500 |
| CCc1cc2c(s1)CCO[C@@]21CCN(CC2CN(C(=O)c3ncccc3O)C2)[C@@H](C)C1 [Compound 423, [3-[[(2′S,4R)-2-ethyl-2′-methyl-spiro[6,7-dihydrothieno[3,2-c]pyran-4,4′-piperidine]-1′-yl]methyl]azetidin-1-yl]-(3-hydroxy-2-pyridyl)methanone] | < 100 |
| CCc1cc2c(s1)CCOC21CCN(Cc2cn(CC(C)CO)nn2)C(C)C1 (centres unmarked) [Compound 82] | 100 to 500 |
| C[C@H]1C[C@@]2(CCN1C[C@H]1C[C@@H](NS(=O)(=O)C3CC3)C1)OCCc1cc(CC(F)F)sc12 [Compound 552] | < 100 |
| CCc1cc2c(s1)CCO[C@@]21CCN(C[C@H]2C[C@@H](NC(=O)Oc3ccc(OC)cc3)C2)[C@@H](C)C1 [Compound 379] | < 100 |
| CCc1cc2c(s1)CCOC21CCN(Cc2ccc(NC3(COC)CC3)nc2)CC1 [Compound 1072] | 100 to 500 |
| CCc1cc2c(s1)CCO[C@@]21CCN(C[C@H]2C[C@@H](NC(=O)c3nnc(C)o3)C2)[C@@H](C)C1 [Compound 347] | 100 to 500 |
| C[C@H]1C[C@@]2(CCN1Cc1cnc(N3CCOCC3)nc1)OCCc1cc(Cl)sc12 [Compound 658] | < 100 |
| C[C@H]1C[C@@]2(CCN1Cc1cnn(CC(C)(CO)CO)c1)OCCc1c2sc(C(F)(F)F)c1CO [Compound 876] | < 100 |
| CCc1cc2c(s1)CCO[C@@]21CCN(Cc2cnc(NCC(O)CO)nc2)[C@@H](C)C1 (some centres unmarked) [Compound 217] | < 100 |
| COc1cccc(CN2CC[C@]3(C[C@@H]2C)OC[C@H](O)c2cc(Cl)sc23)n1 [Compound 782] | 500 to 1000 |
| C[C@H]1C[C@@]2(CCN1Cc1cnn(CC3(O)CC(C#N)C3)c1)OCCc1c2sc(C(F)(F)F)c1CO (some centres unmarked) [Compound 954] | < 100 |
| CCc1cc2c(s1)CCO[C@@]21CCN(CC(=O)C(C)(C)C)[C@@H](C)C1 [Compound 290] | 500 to 1000 |
| COc1nccc(CN2CC[C@]3(C[C@@H]2C)OC[C@H](O)c2cc(Cl)sc23)n1 [Compound 805] | 500 to 1000 |
| C[C@H]1C[C@@]2(CCN1Cc1cnc(N[C@H]3CC[C@H](O)CC3)nc1)OCC(O)c1cc(Cl)sc12 (mixture of isomers) [Compound 825, (2′S, 7R)-2-chloro-1′-[[2-[(4-hydroxycyclohexyl)amino]pyrimidin-5-yl]methyl]-2′-methyl-spiro[4,5-dihydrothieno[2,3-c]pyran-7,4′-piperidine]-4-ol] | < 100 |
| CCc1cc2c(s1)CCO[C@@]21CCN(C[C@H]2C[C@@H](NC(=O)CCN3CCCCC3)C2)[C@@H](C)C1 [Compound 322] | 100 to 500 |

| Compound | IC50 [nM] |
| --- | --- |
| C[C@H]1C[C@@]2(CCN1Cc1ccc3c(c1)n(C)c(=O)n3C)OCCc1cc(CC(F)F)sc12 [Compound 564] | < 100 |
| CC(C)Cn1cc(CN2CC[C@]3(C[C@@H]2C)OCCc2c3sc(Cl)c2CO)cn1 [Compound 759, [(2′S, 7R)-2-chloro-1′-[(1-isobutylpyrazol-4-yl)methyl]-2′-methyl-spiro[4,5-dihydrothieno[2,3-c]pyran-7,4′-piperidine]-3-yl]methanol] | 100 to 500 |
| C[C@H]1C[C@@]2(CCN1Cc1cn(CCS(C)(=O)=O)nn1)OCC(O)c1cc(Cl)sc12 (some centres unmarked) [Compound 823] | 100 to 500 |
| CCc1cc2c(s1)CCO[C@@]21CCN(Cc2cn(CC(=O)N3CCCC3)nn2)[C@@H](C)C1 [Compound 63] | < 100 |
| CCc1cc2c(s1)CCO[C@@]21CCN(CC2CN(C(=O)c3ncon3)C2)[C@@H](C)C1 [Compound 474] | < 100 |
| C[C@H]1C[C@@]2(CCN1Cc1ccc(F)cn1)OC[C@H](O)c1cc(Cl)sc12 [Compound 792] | 100 to 500 |
| C[C@H]1C[C@@]2(CCN1Cc1cnn(C[C@H](O)CC#N)c1)OCCc1c2sc(C(F)(F)F)c1CO [Compound 918] | < 100 |
| CCc1cc2c(s1)CCO[C@@]21CCN(C[C@H]2C[C@@H](NC(=O)c3cc(CO)n[nH]3)C2)[C@@H](C)C1 [Compound 363] | < 100 |
| CCc1cc2c(s1)CCO[C@@]21CCN(Cc2cn(Cc3cnn(C)c3C)nn2)[C@@H](C)C1 [Compound 44] | < 100 |
| CCc1cc2c(s1)CCO[C@@]21CCN(Cc2cn(Cc3nc(C)cc(C)n3)nn2)[C@@H](C)C1 [Compound 53] | 500 to 1000 |
| C[C@H]1C[C@@]2(CCN1Cc1cnn(C)c1)OCCc1cc(CC(F)F)sc12 [Compound 565] | < 100 |
| CCc1cc2c(s1)CCO[C@@]21CCN(C[C@H]2C[C@@H](NS(=O)(=O)c3ccc(F)cc3)C2)[C@@H](C)C1 [Compound 399] | < 100 |
| C[C@H]1C[C@@]2(CCN1Cc1ccc(NS(C)(=O)=O)cc1)OC[C@H](O)c1cc(Cl)sc12 [Compound 780] | < 100 |
| CCc1cc2c(s1)CCO[C@@]21CCN(Cc2c[nH]nn2)[C@@H](C)C1 [Compound 8, (2′S,4R)-2-ethyl-2′-methyl-1′-(1H-triazol-4-ylmethyl)spiro[6,7-dihydrothieno[3,2-c]pyran-4,4′-piperidine]] | < 100 |
| C[C@H]1C[C@@]2(CCN1Cc1cnn(CC(O)CC(C)(C)O)c1)OCCc1c2sc(C(F)(F)F)c1CO (some centres unmarked) [Compound 949] | < 100 |
| CCc1cc2c(s1)CCO[C@@]21CCN(C[C@H]2C[C@@H](NC(=O)c3cccc4c3OCCC4)C2)[C@@H](C)C1 [Compound 311] | 100 to 500 |
| Cc1cc2c(s1)CCO[C@]21CCN(Cc2cnn(CCS(C)(=O)=O)c2)[C@@H](C)C1 [Compound 516, (2′S,4S)-2,2′-dimethyl-1′-[[1-(2-methylsulfonylethyl)pyrazol-4-yl]methyl]spiro[6,7-dihydrothieno[3,2-c]pyran-4,4′-piperidine]] | < 100 |
| C[C@H]1C[C@@]2(CCN1CC1CCN(S(C)(=O)=O)CC1)OCCc1c2sc(Cl)c1CO [Compound 748] | 100 to 500 |
| C[C@H]1C[C@@]2(CCN1Cc1ccccc1F)OCCc1cc(Cl)sc12 [Compound 682] | 100 to 500 |
| Cc1cc2c(s1)C1(CCN(Cc3cn(CCS(C)(=O)=O)nn3)[C@@H](C)C1)OCC2 (stereo partly drawn) [Compound 1029, (2′S)-2,2′-dimethyl-1′-[[1-(2-methylsulfonylethyl)triazol-4-yl]methyl]spiro[4,5-dihydrothieno[2,3-c]pyran-7,4′-piperidine]] | 100 to 500 |
| C[C@H]1C[C@@]2(CCN1Cc1cnn(CC(O)C(N)=O)c1)OC[C@@H](O)c1cc(C(F)(F)F)sc12 (some centres unmarked) [Compound 970] | < 100 |
| CCc1cc2c(s1)CCO[C@@]21CCN(Cc2cn(CC3(S(C)(=O)=O)CCOCC3)nn2)[C@@H](C)C1 [Compound 155] | < 100 |
| C[C@H]1C[C@@]2(CCN1C[C@H](O)CO)OCCc1cc(CC(F)F)sc12 [Compound 607] | 100 to 500 |
| C[C@H]1C[C@@]2(CCN1CC1(O)CCS(=O)(=O)CC1)OCCc1cc(CC(F)F)sc12 [Compound 606] | 100 to 500 |
| CCc1cc2c(s1)CCO[C@@]21CCN(CC(=O)OC)[C@@H](C)C1 [Compound 283] | 500 to 1000 |
| CCc1cc2c(s1)CCO[C@@]21CCN(Cc2cnc(N[C@@H](C)C(=O)NC)nc2)[C@@H](C)C1 [Compound 225] | < 100 |
